Measured values as given in patent US20110008279A1, “Methods and Compositions Relating to Adhesins as Adjuvants” (priority 2005, published 2011).
Where “and” joins values, the source holds several entries; their conditions need not be identical. Equal entries are not always repeated. Where two headings read alike, the source gives them in different places.

How the values were obtained:
[1] = target: mo-DCs; assay: Alexa-NadAΔ351-405 binding to mo-DCs (flow cytometry, Scatchard analysis); set-up: species or system human; details: Scatchard plot
Description: In some cases, DCs primed or not with IFN-γ were treated at 37° C. for 1 hour with FCS/RPMI containing Bafilomycin A1 200 nM, incubated at 37° C. (in RPMI medium supplemented with 10% FBS and Bafilomycin A1) or 0° C. (in PBS supplemented with 10% FBS) for 3 hours with different concentrations (0.0375-5 μM) of Alexa-NadAΔ351-405 or NadA. Afterward cells were washed and suspended in FACS buffer for FACS analysis. Scatchard plots were constructed from data obtained from cell-associated mean fluorescence intensities due to cell-bound Alexa NadA were measured. The dissociation constant Kd and maximal binding capacities were then determined by Scatchard analyses.

[2] = system: mo-DCs; assay: Expression of maturation markers on mo-DCs (flow cytometry); type: cell-based, human; details: for CD86 expression on co-stimulation with R-848: R-848 1 μM, NadA 1.5 μM
Description: Reagents used were tested for low endotoxin contamination using the Limulus amoebocyte assay (Sigma). Dendritic cells were generated from human peripheral blood mononuclear cells (PBMC) as described previously. In brief, PBMC were isolated from buffy coats of healthy donors by Ficoll-Paque Plus density gradient centrifugation (Amersham Pharmacia Biotech AB). Separate monocyte and T-cell fractions were obtained from PBMCs by Percoll density gradient centrifugation (Amersham Pharmacia Biotech AB). […] DC were obtained by 6-d culture adherent monocytes in medium with 20 ng/ml IL-4 (5×10^6 units/mg, Peprotech) and 50 ng/ml GM-CSF (1×10^7 units/mg, Peprotech). Cytokines were added again on day 4 in RPMI-1640 medium supplemented with 10% FBS. […] After 24 h cells were harvested and analysed. Culture supernatants were collected frozen in liquid nitrogen and conserved at −80° C. for cytokine analysis.
After differentiation, DC were routinely stained with phycoerytrin conjugated monoclonal antibodies to human CD14, CD1a, CD83, CD86 (B7.2), CD80 (B7.1), MHC II (HLA-DR), purchased from BD-Pharminghen and Caltag. In parallel, cells were stained with the isotype matched control mAb. Cells were immunostained with the proper dilution of PE-conjugated anti human monoclonal antibodies at 4° C. for 30 min in 100 μl of phosphate-buffered saline pH 7.2 (PBS, GIBCO BRL) containing 1% FBS and 0.1% NaN3 (FACS buffer). After washing, propidium iodide was added to exclude dead cells and cell fluorescence intensities of the gated populations were measured with a EPICS XL-MCL (Coulter) flow cytometer and analyzed with EXPO 32ADC XL 3COLOR or WinMDI 2.8. software. Data were collected on 10000-20000 events.

[3] = Heparin-agarose affinity chromatography; type: binding; details: salt gradient 0.05-3M NaCl
Description: Using, affinity chromatography with different buffers (phosphate 20 mM and hepes 20 mM), pH (5.5, 7.4 and 8.0) and CaCl2 concentrations, the binding of NadA to heparin was further investigated. A solution of hepes 20 mM containing 5 μg NadA was added to 100 μl of heparin-agarose pre-equilibrated in the same buffer. After washing, bound protein was eluted using a salt gradient (0.05-3M NaCl). All the fractions from the previous steps were collected and transferred to nitrocellulose membrane using Dot-blot. The protein was detected with a rabbit polyclonal anti-NadA antibody and phosphatase alcalyne-conjugated goat anti-rabbit anti-IgG with its substrate. This protocol has shown a heterogeneous behaviour for NadA. A fraction of the protein elutes at physiological salt concentrations (100-150 mM NaCl) and a further one elutes at high salt concentrations (up to 3M NaCl).

[4] = system: human macrophages; assay: NadA binding to human macrophages; details: 37° C.
Description: The graphs plot the mean fluorescence intensities (MFI) ±SD measured in human macrophages that have been incubated with NadAΔ351-405-Alexa, at different concentrations (A), or with 100 nM NadAΔ351-405-Alexa in presence of increasing concentrations of unlabelled protein (B), for 3 hours at 37° C. or 0° C. The reported data are the average of three independent experiments repeated in triplicate.
NadA binding to monocyte-derived macrophages was also investigated. A dose-dependent association of NadA to macrophages was confirmed by MFI analysis and competition by non-labelled ligand was used to ascertain whether NadA binding was specific.

[5] = system: human monocytes; assay: Surface markers of human monocytes; type: cell-based
From the text: (§1) The functional effect of NadA on human monocytes and macrophages was investigated using a soluble recombinant mutant lacking the membrane anchor and a full length protein expressed in E. coli OMV or N meningitidis OMV. To better define the immuno-modulatory activity of NadA, the cells were stimulated with protein plus or minus both microbial stimulus (LPS) and immunological stimulus (IFNγ).
(§2) The effect of NadAΔ351-405 on monocyte and macrophage cells was further investigated by measuring the expression of the antigen presentation marker MHC-II, the co-stimulatory molecules CD80 and CD86 and the cell adhesion molecule ICAM-1.

[6] = system: human macrophages; assay: Surface markers of human macrophages; type: cell-based
From the text: as §1, §2

[7] = system: human monocytes; assay: Long-term morphology of monocytes (light microscopy); type: cell-based
Description: In order to evaluate the possible long-term, differentiation effect of NadA, adherent monocytes were treated with medium alone, NadAΔ351-405 or E. coli LPS and cells were cultured for seven days. At day 4 the agonists were added again to ensure a constant stimulation. Cell morphology was monitored by light microscopy after 1, 2, 3 and 7 days. […] NadAΔ351-405 thus induces both alteration cell morphology and distribution, this is a good indicator of monocyte activation and differentiation.

NadAΔ351-405
Kd ([1]; read-out: Kd1, high affinity binding sites): 50 to 100 nM and 90 nM | Kd ([1]; read-out: Kd2, low affinity binding sites): 3000 to 5000 nM and 4000 nM | CD86 expression on co-stimulation with R-848 ([2]; no IFN-γ priming): addition of the two effects | CD86 expression on co-stimulation with R-848 ([2]; after IFN-γ priming, flagellin 10 μg/ml): maximal CD86 expression | CD83 level relative to that induced by LPS ([2]; after IFN-γ priming): ~50% | CD86 expression, dose response ([2]; after IFN-γ priming): effectively induced CD86 also in the submicromolar concentration range | CD86 level ([2]; after IFN-γ priming): reached the same value observed in LPS-treated cells | IFN-γ potentiation of NadA effect on CD86 ([2]; at higher NadA concentrations): 2-3 fold | CD86 expression, dose response ([2]; no IFN-γ priming): not different from control cells below 1 μM NadA | plasma membrane HLA-DR expression ([2]; no IFN-γ priming): partially increased | CD83 expression ([2]; no IFN-γ priming, 24 hour exposure, 1 μM / 1.5 μM): not increased | NaCl concentration of elution from heparin-agarose, further fraction [3]: up to 3 M | NaCl concentration of elution from heparin-agarose, one fraction [3]: 100 to 150 mM | decrease of the signal associated to macrophages by non-labelled ligand [4]: −50% | CD80 expression ([5]; co-stimulation with IFN-γ): increased | CD86 or HLA-DR expression ([5]; with LPS or IFN-γ): No NadA immunomodulatory effect | ICAM-1 expression [6]: increased | HLA-DR expression ([6]; IFN-γ co-stimulation): greatly enhanced | CD80 expression ([6]; co-stimulation with IFN-γ): increased | CD86 expression ([6]; co-stimulation with LPS): Partial stimulation | cell morphology ([7]; 3-day incubation): became elongated and tended to cluster | number of surviving cells with respect to the control ([7]; 7 culture days): greatly increased
